Results published in patent US8969303B2, “Tocotrienol esters” (First Tech International Limited, priority 2010, dated 2015).

Tests used:
MDA-MB-231 cells = assay: Wound healing anti-migratory assay; assay type: cell-based; conditions: Homo sapiens, single dose of 5 μM, 24 hours, read-out: inhibition of the migrated MDA-MB231 cells
Method: The highly metastatic human breast cancer MDA-MB-231 cells were cultured in RPMI 1640 medium containing 10 mM HEPES, 4 mM L-glutamine, 10% fetal bovine serum, penicillin (100 IU mL-1), and streptomycin (50 μg mL-1), and grown in a 5% CO2 atmosphere at 37° C. Cells were plated onto sterile 24-well culture plates and allowed to recover for a confluent cell monolayer formed in each well (>95% confluence). Wounds were then inflicted to each cell monolayer using a sterile 200 μL pipette tip. Media were removed, cells monolayers were washed twice with PBS, and then fresh media containing test compounds were added to each well. Test compounds were prepared in DMSO at 5 μM concentration and added to the plates using DMSO as negative control. Tests were preformed in triplicate. The incubation was carried out for 24 hours under serum-starved conditions, after which the media was removed and the cells were fixed and stained using a Romanowski stain sold under the Diff Quick name (Dade Behring Diagnostics, Aguada, Puerto Rico). The number of cells which migrated on the scratched wound were counted under the microscope in three or more randomly selected fields (magnification: 400×). Final results are expressed as mean+/−SEM per 400× field.

[1] = test system: +SA mammary epithelial cells; assay: Antiproliferative MTT assay on +SA mammary epithelial cells; assay type: cell-based, mouse; conditions: for IC50: malignant mice +SA mammary cells, 24 hour treatment, MTT; for antiproliferative activity: +SA mammary cells, in words
Source text: +SA mammary epithelial cell lines were serially passaged at subconfluent cell density. The +SA cell line was derived from an adenocarcinoma that developed spontaneously in a BALB/c female mouse. That cell line is discussed in more detail in Anderson, L. W., Danielson, K. G., Hosick, H. L. Eur. J. Cancer Clin. Oncol. 1981, 17, 1001-1008, Danielson, K G., Anderson, L. W., Hosick, H. L. Cancer Res. 1980, 40, 1812-1819.31, and Anderson, L. W., Danielson, K. G., Hosick, H. L. In Vitro. 1979, 15, 841-843. Cell culture conditions were similar to those described in detail in Shah, S. J., Gapor, A., Sylvester, P. W. Nutr. Cancer. 2003, 45, 236-246, Shah, S. J., Sylvester, P. W. Biochem. Cell. Biol. 2005, 83, 86-95, Wali, V. B., Sylvester, P. W. Lipids, 2007, 42, 1113-1123, and Wali, V. B., Bachawal, S. V., Sylvester, P. W. Exp. Biol. Med. (Maywood) 2009, 234, 639-650. Briefly, +SA cells were maintained in serum-free defined medium consisting of Dulbecco's modified Eagle's medium (DMEM)/F12 containing 5 mg/ml bovine serum albumin (BSA), […], 100 U/ml soybean trypsin inhibitor, 100 U/ml penicillin, 0.1 mg/ml streptomycin, […], and 10 ng/ml epidermal growth factor. For subculturing, cells were rinsed twice with sterile Ca^2+ and Mg^2+-free phosphate buffered saline (PBS) and incubated in 0.05% trypsin containing 0.025% EDTA in PBS for 5 minutes at 37° C. The released cells were centrifuged, resuspended in serum-free defined media and counted using a hemocytometer. A stock solution of the Compounds was prepared in DMSO. Once dissolved, this solution was added to a small volume of sterile 10% BSA in water and incubated overnight at 37° C. This solution conjugated to BSA was used to prepare various concentrations (0-40 μM) of tocotrienol analogs. DMSO was added to all treatment media such that the final DMSO concentration was the same in all treatment groups within a given experiment and was always less than 0.1%. For cytotoxicity studies, cells were seeded at a density of 5×10^4 cells/well (6 wells/group) in 24-well culture plates and allowed to grow in serum-free control defined media. After a 3 day incubation period (approximately 70% confluency), cells were divided equally into various treatment groups and exposed to their respective treatments for a 24 hour incubation period. Following the 24 hour treatment period, cell viability was measured using the MTT assay. All materials were purchased from Sigma Chemical Company (St. Louis, Mo.) unless otherwise stated.
+SA mammary epithelial cell viable number was determined by the 3-(4,5-dimethylthiazol-2-yl)-2,5-diphenyl tetrazolium bromide (MTT) colorimetric assay. On the day of assay, treatment medium was replaced with fresh growth medium containing 0.42 mg/ml MTT, and the cells in 24-well plates were incubated at 37° C. for 4 hours. Afterward, the medium was removed, and the MTT crystals were dissolved in isopropyl alcohol (1 ml/well). The optical density of each sample was read at 570 nm on a microplate reader (SpectraCount, Packard BioScience Company), against a blank prepared from cell-free cultures. The number of cells/well was calculated against a standard curve prepared by plating various concentrations of cells, as determined by hemocytometer, at the start of each experiment.
Differences among the various treatment groups in +SA cell cytotoxic studies were determined by analysis of variance (ANOVA) followed by Dunnett's t-test. The difference of P<0.05 was considered to be statistically significant as compared with vehicle-treated controls. Linear regression analysis of treatment effects on viable cell number in growth and cytotoxicity studies was used to determine the 50% growth inhibition concentration (IC50) for individual treatments.

[2] = Stability in phosphate buffer; assay type: physicochemical; conditions: phosphate buffer pH 7.4, 37° C.
Method: The stability of each of α-tocotrienol and Compound 6 was studied at 37° C. in phosphate buffer (pH 7.4). In amber vials, 500 μg/mL of each compound were dissolved in the buffer and the solution was incubated at 37° C. At interval times (0, 0.5, 1, 2, 4, 6, and 24 h), 50 μL it samples were collected and equal volumes of methanol were added to each sample followed by HPLC analysis.
A Shimadzu HPLC system (Columbia, Md.) was used for quantification of α-tocotrienol and Compound 6. This system is composed of SIL 20-AHT autosampler, SPD-20A UV/VIS detector, and LC-20AB pump connected to a Dgu-20A3 degasser. Data acquisition was achieved by LC Solution software version 1.22 SP1 Shimadzu. The following chromatographic conditions were used: […] (250×4.6 mm id; Phenomenex, Torrance, Calif.), flow rate was adjusted to 1.0 mL/min, and λ was set at 295 nm. For α-tocotrienol solubility and stability studies, an isocratic elution with MeOH-EtOH—CH3CN (40:30:30, v/v/v) as mobile phase for 10 min. α-tocotrienol was eluted at 6.7 min. For the simultaneous separation of α-tocotrienol and Compound 6 the following gradient elution was also used starting with H2O— MeOH—N(Et)3 (10:90:0.05, v/v/v) for 5 min, followed by isocratic MeOH—N(Et)3 (100:0.05, v/v) for another 10 min. The retention times were 4 and 14.1 for Compound 6 and α-tocotrienol, respectively. Standard curves for α-tocotrienol and Compound 6 in MeOH were prepared in the range of 0.4-50 μg/mL and 1-1000 μg/mL, respectively. Each compound was quantified using its calibration curve for compounds peak area versus its concentration.

[3] = Mus musculus, Epithelial cell, 24 h

SMILES | IC50 [1, 3] | also measured
CC(C)=CCC/C(C)=C/CC/C(C)=C/CC[C@]1(C)CCc2c(C)c(OC(=O)c3ccc(C(=O)O)cc3C(=O)O)c(C)c(C)c2O1 [Compound 1, 4-(((R)-2,5,7,8-tetramethyl-2-((3E,7E)-4,8,12-trimethyltrideca-3,7,11-trienyl)chroman-6-yloxy)carbonyl)isophthalic acid] | 1500 nM | inhibition at 5 µM (MDA-MB-231 cells): ~50%
CC(C)=CCC/C(C)=C/CC/C(C)=C/CC[C@]1(C)CCc2cc(OC(=O)c3ccc(C(=O)O)cc3C(=O)O)c(C)c(C)c2O1 [Compound 2, 4-(((R)-2,7,8-trimethyl-2-((3E,7E)-4,8,12-trimethyltrideca-3,7,11-trienyl)chroman-6-yloxy)carbonyl)isophthalic acid] | 620 nM | –
CC(C)=CCC/C(C)=C/CC/C(C)=C/CC[C@]1(C)CCc2c(C)c(OC(=O)c3cc(C(=O)O)ccc3C(=O)O)c(C)c(C)c2O1 [Compound 3, 2-(((R)-2,5,7,8-tetramethyl-2-((3E,7E)-4,8,12-trimethyltrideca-3,7,11-trienyl)chroman-6-yloxy)carbonyl)terephthalic acid] | 1460 nM | inhibition at 5 µM (MDA-MB-231 cells): ~50%
CC(C)=CCC/C(C)=C/CC/C(C)=C/CC[C@]1(C)CCc2cc(OC(=O)c3cc(C(=O)O)ccc3C(=O)O)c(C)c(C)c2O1 [Compound 4, 2-(((R)-2,7,8-trimethyl-2-((3E,7E)-4,8,12-trimethyltrideca-3,7,11-trienyl)chroman-6-yloxy)carbonyl)terephthalic acid] | 1440 nM | –
CC(C)=CCC/C(C)=C/CC/C(C)=C/CC[C@]1(C)CCc2cc(OC(=O)c3cc(C(=O)O)ccc3C(=O)O)cc(C)c2O1 [Compound 5, 2-(((R)-2,8-dimethyl-2-((3E,7E)-4,8,12-trimethyltrideca-3,7,11-trienyl)chroman-6-yloxy)-carbonyl)terephthalic acid] | 1500 nM | –
CC(C)=CCC/C(C)=C/CC/C(C)=C/CC[C@]1(C)CCc2cc(OC(=O)/C=C\C(=O)O)c(C)c(C)c2O1 [Compound 7, (Z)-4-oxo-4-((R)-2,7,8-trimethyl-2-((3E,7E)-4,8,12-trimethyltrideca-3,7,11-trienyl)-chroman-6-yloxy)but-2-enoic acid] | 2300 nM | –
CC(C)=CCC/C(C)=C/CC/C(C)=C/CC[C@]1(C)CCc2cc(OC(=O)/C=C\C(=O)O)cc(C)c2O1 [Compound 8, (Z)-4-((R)-2,8-dimethyl-2-((3E,7E)-4,8,12-trimethyltrideca-3,7,11-trienyl)chroman-6-yloxy)-4-oxobut-2-enoic acid] | 860 nM | IC50 [1]: 870 nM
CC(C)=CCC/C(C)=C/CC/C(C)=C/CC[C@]1(C)CCc2cc(OC(=O)CC(C)CC(=O)O)c(C)c(C)c2O1 (stereo partly drawn) [Compound 9, 3-Methyl-5-oxo-5-((R)-2,7,8-trimethyl-2-((3E,7E)-4,8,12-trimethyltrideca-3,7,11-trienyl)chroman-6-yloxy)pentanoic acid] | 19200 nM | antiproliferative activity [1]: inactive
CC(C)=CCC/C(C)=C/CC/C(C)=C/CC[C@]1(C)CCc2cc(OC(=O)c3ccccc3)c(C)c(C)c2O1 [Compound 10, (R)-2,7,8-trimethyl-2-((3E,7E)-4,8,12-trimethyltrideca-3,7,11-trienyl)chroman-6-yl benzoate] | 6550 nM | inhibition at 5 µM (MDA-MB-231 cells): ~50%; antiproliferative activity [1]: inactive
CC(=O)Oc1cc(C(=O)Oc2cc3c(c(C)c2C)O[C@](C)(CC/C=C(\C)CC/C=C(\C)CCC=C(C)C)CC3)cc(OC(C)=O)c1OC(C)=O [Compound 11, 5-(((R)-2,7,8-trimethyl-2-((3E,7E)-4,8,12-trimethyltrideca-3,7,11-trienyl)chroman-6-yloxy)carbonyl)benzene-1,2,3-triyl triacetate] | 1720 nM | –
CC(=O)Oc1ccc(/C=C/C(=O)Oc2cc3c(c(C)c2C)O[C@](C)(CC/C=C(\C)CC/C=C(\C)CCC=C(C)C)CC3)cc1OC(C)=O [Compound 12, 4-((E)-3-oxo-3-((R)-2,7,8-trimethyl-2-((3E,7E)-4,8,12-trimethyltrideca-3,7,11-trienyl)chroman-6-yloxy)prop-1-enyl)-1,2-phenylene diacetate] | > 40000 nM | antiproliferative activity [1]: inactive
CC(C)=CCC/C(C)=C/CC/C(C)=C/CC[C@]1(C)CCc2c(C)c(O)c(C)c(C)c2O1 [α-tocotrienol] | – | stability in phosphate buffer (in words) [2]: highly unstable; start of decomposition after dissolution [2]: 1 h; chemical stability relative to the zero time concentration ([2]; over 24 h): completely undetectable
